According to patent US20180271863A1, “TARGETING P2 PURINERGIC RECEPTORS TO TREAT HEPATOCELLULAR CARCINOMA (HCC)” (Baylor College of Medicine, priority 2015, published 2018):

Experiments:
Assay type in all cases: cell-based, human
SNU-387 cells = experiment: Western blotting of cyclin D3 in SNU-387 cells; conditions: ATP 24 hours, serum-free
Experimental: (§1) HCC cells (Huh7, Hep3B, SNU-387, and PLC/PRF/5) maintained in serum-free conditions were treated with ATP for 24 hours and total protein extracts were analyzed by Western blotting for cyclin D3 expression. The α-tubulin was utilized as the protein loading control. Data represents mean±SD, n=3-6, *p<0.05 vs untreated (un).
(§2) Normal human primary hepatocytes isolated from healthy adults (no known history of HCC) in suspension or freshly-frozen prior to shipment (Cryoport Systems, CA) were purchased from Triangle Research Labs, NC. […]
(§3) Total protein extracts were obtained by homogenizing cells in total lysis buffer (50 mM Tris-HCl, pH 7.5, 0.5 M NaCl, 2 mM EGTA, 2 mM EDTA, 1.0% Triton X-100, 0.25% Deoxycholate, 1 m/ml pepstatin, 1.0 m/ml leupeptin, 1.0 m/ml aprotinin, 1.0 mM phenylmethylsulfonyl fluoride, 1.0 mM Dithiothreitol, 2.0 mM activated Na3VO4, and 2.0 mM NaF) and centrifuging at 14,000 rpm for 10 min (4° C.). Equal amounts of total proteins as determined by BCA protein Assay (Pierce, Rockford, Ill.) were analyzed by Western blotting. […]

PLC/PRF/5 cells = experiment: Western blotting of cyclin D3 in PLC/PRF/5 cells; conditions: ATP 24 hours, serum-free
Experimental: as §1, §2, §3

Huh7 cells = experiment: Western blotting for cleaved PARP (apoptosis marker); conditions: antagonist treatment alone
From the text: Arrows point to BrdU-positive cells, expressed as a percentage of total cells. Data represents mean±SEM, n=3-6, *p<0.05 vs. untreated. […] Data represents mean±SD, n=3, *p<0.05 vs. untreated, #p<0.05.
Applicants' observations that P2X3 agonist 2-MeSATP treatment alone was sufficient to induce cyclin D3 expression (1.9 fold) and pre-treatment with an alternative P2X3 antagonist (A317491) attenuated ATP induced cyclin D3 expression in Huh7 cells further validated the role of P2X3 purinergic receptor activation in the induction of cell-cycle progression in HCC cells (FIGS. 11C-D). Furthermore, P2X3 antagonist treatment alone was sufficient to reduce the baseline BrdU-positive cells and cyclin protein expression in serum-free conditions, implicating P2X3 activation as a necessary facilitator of Huh7 cell cycle progression (FIGS. 11A-B).
as §3

Compound | cyclin D3 protein expression (SNU-387 cells) [fold] | cyclin D3 protein expression (PLC/PRF/5 cells) [fold] | cleaved PARP protein expression (marker of apoptosis) (Huh7 cells)
Nc1ncnc2c1ncn2[C@@H]1O[C@H](COP(=O)(O)OP(=O)(O)OP(=O)(O)O)[C@@H](O)[C@H]1O [ATP] | 1.6 | 1.4 | 
COc1cc(C(C)C)c(Oc2cnc(N)nc2N)cc1I [AF-353] |  |  | increased
